{
  "source": "patent US20090088411A1",
  "about": "“No-donating corticosteroid with improved pharmacokinetic, anti-inflammatory and vasodilatory properties” (Topigen Pharmaceuticals Inc., priority 2007, published 2009)",
  "key": {"blood eosinophils": {"system": "blood eosinophils", "assay": "Blood eosinophils", "type": "in vivo, humans", "conditions": "mean (SD)", "protocol": "(§1) Those subjects who completed the 14-day run-in period were assigned to receive either an inhaled version of a compound of the present invention (in this case, budesonide 21-(4′-nitrooxymethyl)benzoate, designated hereafter as “TPI-1020”) or budesonide over a 21-day period. The doses administered were based on equimolar amounts of budesonide and were as follows: budesonide 400 μg bid for 14 days then 800 μg bid for 7 days; TPI-1020: 600 μg bid for 14 days then 1200 μg bid for 7 days. Study treatments were delivered in lactose-based blends using the capsule-based Aeroliser dry powder inhaler. Budesonide capsules (Miflonide®, Novartis Pharmaceuticals) delivered 383 μg as compared to 423 μg of budesonide for TPI-1020 (equivalent to 9.5% more budesonide delivered to the body in the TPI-1020 group). However, the fine particle dose of budesonide was 104 μg for the budesonide capsules and only 78 μg for the TPI-1020 capsules (equivalent to 25% less budesonide delivered to the lung in the TPI-1020 group). No other asthma medication except rescue salbutamol was permitted during the study."}, "sputum eosinophils": {"system": "sputum eosinophils", "assay": "Sputum differential cell count: eosinophils", "type": "in vivo, humans", "conditions": "mean (SD)", "protocol": "(§2) Although this study was only powered for neutrophils, the following parameters were also evaluated: sputum total cell and differential cell counts, using known methods, on days 0, 15 and day 22; pre-dose FEV1 measurements on days 0, 1, 14, 15 and 22; peak flow measurements throughout the study (miniwright meter); use of daily rescue medication (salbutamol) throughout the study; the response to methacholine challenge test; and the eNO levels (chemiluminescence after reaction with ozone) on days 0, 15 and 22 and plasma CRP levels on days 0, 15 and 22.\nas §1"}, "[1]": {"system": "HPA (hypothalamic-pituitary-adrenal) axis", "assay": "24-hour urinary free cortisol", "conditions": "vs baseline", "description": "(§4) This undesirable HPA axis suppression is typically measured by a reduction in urinary cortisol excretion.\n(§5) Safety parameters consisted of adverse events and serious adverse events, vital signs, asthma symptoms, laboratory determinations of CBC, urinalysis, regular blood biochemistry, plasma C-reactive protein (CRP), plasma and urinary free cortisol levels, spirometry and electrocardiograms (ECGs)."}, "FEV1 spirometry": {"assay": "FEV1 spirometry", "type": "in vivo, humans", "conditions": "mean (SD)", "protocol": "as §2, §1"}, "[2]": {"assay": "Supine and standing blood pressure (vital signs), clinical study", "type": "in vivo, humans", "conditions": "after 22 days; p=0.015 between groups", "protocol": "as §1"}, "sputum neutrophils": {"system": "sputum neutrophils", "assay": "Sputum differential cell count: neutrophils", "type": "in vivo, humans", "conditions": "for median sputum neutrophils: all patients", "excerpt": "(§3) A clinical study was undertaken in humans to test certain aspects of a preferred NO-donating budesonide derivative, TPI-1020, as compared to the corticosteroid, budesonide which was not modified with a NO-donating moiety. Specifically, the objectives of this study were to determine the safety, pharmacodynamic and pharmacokinetic activity of multiple doses of inhaled NO-donating budesonide derivatives compared to that of equimolar doses of inhaled budesonide in subjects with mild asthma who smoke. We chose patients with asthma who smoke since these patients had reported to have not only an increase in eNO but also an increase in neutrophils within their sputum (as described in COPD). While assessing the safety of these compounds in such patients we could thus explore the effects of the same in patients with increased sputum neutrophils.\nas §2, §1\nThe sample size was chosen to provide information about the primary study objective (safety) and with the power to detect a 20% difference in the decrease in sputum neutrophils with TPI-1020, versus that occurring with budesonide. There are no published studies in mild smokers with asthma that have described the variability in sputum neutrophils. However, based on the COPD publication by Gamble et al., almost all patients with COPD have increased sputum neutrophils (>20%). We calculated that if 13 subjects per group completed the study, a difference of 20% in neutrophils (%) between groups could be detected with a power of 80%."}, "blood lymphocytes": {"system": "blood lymphocytes", "assay": "Blood lymphocytes", "type": "in vivo, humans", "conditions": "mean (SD)", "protocol": "as §1"}, "[3]": {"design": "species or system humans", "conditions": "human, in vivo", "excerpt": "as §3, §1\nThe total number of adverse events reported by patients receiving budesonide and TPI-1020 is graphically depicted in FIG. 1. More specifically, FIG. 1 depicts the total number of either treatment-related or physician-determined adverse events for each drug during the 21 day therapeutic period."}, "C-reactive protein (CRP)": {"system": "C-reactive protein (CRP)", "assay": "Plasma CRP levels", "type": "in vivo, humans", "conditions": "for CRP (mg/L): mean (SD)", "protocol": "as §2, §1"}, "[4]": {"assay": "Asthma control scoring system questionnaire (ACSS)", "type": "in vivo, humans", "conditions": "mean (SD)", "protocol": "as §1"}, "[5]": {"system": "HPA (hypothalamic-pituitary-adrenal) axis", "assay": "Morning plasma cortisol level", "description": "as §4, §5"}, "[6]": {"assay": "Use of daily rescue medication (salbutamol)", "type": "in vivo, humans", "conditions": "mean (SD)", "protocol": "as §2, §1"}, "[7]": {"assay": "Peak flow measurements (PEF, miniwright meter)", "type": "in vivo, humans", "conditions": "mean (SD)", "protocol": "as §2, §1"}, "[8]": {"system": "exhaled nitric oxide (eNO)", "assay": "Exhaled NO levels (chemiluminescence)", "type": "in vivo, humans", "conditions": "for eNO (ppb): mean (SD)", "protocol": "as §2, §1"}, "[9]": {"assay": "Methacholine challenge test (PC20)", "type": "in vivo, humans", "conditions": "mean (SD)", "protocol": "as §2, §1"}},
  "data": [
    {"smiles": "CCCC1O[C@@H]2C[C@H]3[C@@H]4CCC5=CC(=O)C=C[C@]5(C)[C@H]4[C@@H](O)C[C@]3(C)[C@]2(C(=O)CO)O1", "note": "(some centres unmarked) [budesonide, reference compound]", "values": [
      {"measurement": "Blood eos (%)", "setting": "blood eosinophils; Baseline", "value": "2.3 (2.3) %"},
      {"measurement": "Blood eos (%)", "setting": "blood eosinophils; Day 22", "value": "2.1 (1.6) %"},
      {"measurement": "Sputum eos (%)", "setting": "sputum eosinophils; Baseline", "value": "2.4 (3.3) %"},
      {"measurement": "Sputum eos (%)", "setting": "sputum eosinophils; Day 22", "value": "1.0 (1.0) %"},
      {"measurement": "effect on 24-hour urinary free cortisol", "setting": "[1]", "value": "significantly decreased"},
      {"measurement": "FEV1 (ITT, L)", "setting": "FEV1 spirometry; Baseline", "value": "3.3 (0.8) L"},
      {"measurement": "FEV1 (PD, L)", "setting": "FEV1 spirometry; Baseline", "value": "3.2 (0.7) L"},
      {"measurement": "FEV1 (PD, L)", "setting": "FEV1 spirometry; Day 1", "value": "3.1 (0.6) L"},
      {"measurement": "FEV1 (PD, L)", "setting": "FEV1 spirometry; Day 14", "value": "3.3 (0.7) L"},
      {"measurement": "FEV1 (PD, L)", "setting": "FEV1 spirometry; Day 15", "value": "3.3 (0.7) L"},
      {"measurement": "FEV1 (ITT, L)", "setting": "FEV1 spirometry; Day 22", "value": "3.3 (0.8) L"},
      {"measurement": "FEV1 (PD, L)", "setting": "FEV1 spirometry; Day 22", "value": "3.3 (0.7) L"},
      {"measurement": "change in standing pulse pressure", "setting": "[2]", "value": "+4.85 mmHg"},
      {"measurement": "mean sputum neutrophils", "setting": "sputum neutrophils; after 22 days, post hoc, patients with baseline sputum neutrophils <20% (normal)", "value": 3.95, "unit": "%"},
      {"measurement": "mean sputum neutrophils", "setting": "sputum neutrophils; after 22 days, post hoc, patients with baseline sputum neutrophils >20%", "value": 51.9, "unit": "%"},
      {"measurement": "mean sputum neutrophils", "setting": "sputum neutrophils; baseline, post hoc, patients with baseline sputum neutrophils <20% (normal)", "value": 4.25, "unit": "%"},
      {"measurement": "mean sputum neutrophils", "setting": "sputum neutrophils; baseline, post hoc, patients with baseline sputum neutrophils >20%", "value": 55.1, "unit": "%"},
      {"measurement": "median sputum neutrophils", "setting": "sputum neutrophils; day 0 prior to therapy", "value": 39.6, "unit": "%"},
      {"measurement": "increase in median sputum neutrophils", "setting": "sputum neutrophils; day 0 to day 22, all patients", "value": 3.7, "unit": "%"},
      {"measurement": "median sputum neutrophils", "setting": "sputum neutrophils; day 22 (end of therapy)", "value": 41.1, "unit": "%"},
      {"measurement": "decrease in mean sputum neutrophils", "setting": "sputum neutrophils; over 22 days, post hoc, patients with baseline sputum neutrophils >20%", "value": 5.8, "unit": "%"},
      {"measurement": "Blood lymphocytes (%)", "setting": "blood lymphocytes; Baseline", "value": "14.9 (13) %"},
      {"measurement": "Blood lymphocytes (%)", "setting": "blood lymphocytes; Day 22", "value": "22.5 (15.8) %"},
      {"measurement": "severe adverse events", "setting": "[3]", "value": "one"},
      {"measurement": "drug-related adverse events", "setting": "[3]; 21 days", "value": 9},
      {"measurement": "number of subjects that reported adverse events", "setting": "[3]; 21 days", "value": 7},
      {"measurement": "total treatment-emergent adverse events", "setting": "[3]; 21 days", "value": 39},
      {"measurement": "patients in whom CRP decreased", "setting": "C-reactive protein (CRP); 22 days of therapy compared to baseline", "value": 33.2, "unit": "%"},
      {"measurement": "CRP (mg/L)", "setting": "C-reactive protein (CRP); Baseline", "value": "2.7 (4.3) mg/L"},
      {"measurement": "CRP (mg/L)", "setting": "C-reactive protein (CRP); Day 22", "value": "2.5 (1.4) mg/L"},
      {"measurement": "increase in plasma CRP", "setting": "C-reactive protein (CRP); day 15 versus baseline, p=0.03 between groups", "value": 0.7, "unit": "mg/L"},
      {"measurement": "ACSS", "setting": "[4]; Baseline", "value": "73.1 (14)"},
      {"measurement": "ACSS", "setting": "[4]; Day 22", "value": "82.4 (8.4)"},
      {"measurement": "morning plasma cortisol level", "setting": "[5]; baseline", "value": 13.1, "unit": "µg/dL"},
      {"measurement": "morning plasma cortisol level", "setting": "[5]; day 15", "value": 10.9, "unit": "µg/dL"},
      {"measurement": "morning plasma cortisol level", "setting": "[5]; day 22", "value": 11.4, "unit": "µg/dL"},
      {"measurement": "Doses of Rescue Rx", "setting": "[6]; Baseline", "value": "17 (15)"},
      {"measurement": "Rescue free days (%)", "setting": "[6]; Baseline", "value": "40.9 (41) %"},
      {"measurement": "Doses of Rescue Rx", "setting": "[6]; Day 22", "value": "3.5 (4)"},
      {"measurement": "Rescue free days (%)", "setting": "[6]; Day 22", "value": "68.4 (32) %"},
      {"measurement": "PEF (AM, L/min)", "setting": "[7]; Baseline", "value": "405.5 (91) L/min"},
      {"measurement": "PEF (AM, L/min)", "setting": "[7]; Day 22", "value": "423.4 (89.5) L/min"},
      {"measurement": "eNO (ppb)", "setting": "[8]; Baseline", "value": "19 (17.6) ppb"},
      {"measurement": "eNO (ppb)", "setting": "[8]; Day 22", "value": "9.8 (7.6) ppb"},
      {"measurement": "decrease in eNO", "setting": "[8]; equimolar doses, baseline to day 22", "value": 9.2, "unit": "ppb"},
      {"measurement": "PC20 (mg/ml)", "setting": "[9]; Baseline", "value": "1.4 (1.3) mg/ml"},
      {"measurement": "PC20 (mg/ml)", "setting": "[9]; Day 22", "value": "2.0 (1.6) mg/ml"}
    ]}
  ]
}
